Experimental data published in US10167276B2, “Compounds and methods for inhibiting JAK” (Dizal (Jiangsu) Pharmaceutical Co., Ltd., priority 2015, dated 2019).

Assays:
[1] = system: pSTAT3 (Y705); assay: pSTAT3 levels in LG1049 tumor lysates (Western Blot); type: in vivo, mice; conditions: Example 32 25 mg/kg BID, 5 days of treatment, 4H after the final dose
Text: LG1 049 tumor fragments were implanted subcutaneously in female NSG mice (JAX Stock No. 005557). Once tumor volumes reached ˜125-275 mm^3, mice were randomized into 5 groups (10 mice/group, average tumor volume 189 mm^3, range 138-253 mm^3).

[2] = system: NCI-H1975 tumor xenografts; assay: In vivo efficacy with osimertinib in the H1975 xenograft model; parameters: species or system mice; conditions: oral, 18 days
Procedure: (§1) Tumor volume was measured twice a week.
NCI-H1975 cells (a human NSCLC cell line with L858R and T790M mutations in the EGFR gene) tumor cells were implanted subcutaneously in female NCr nude mice (Taconic Laboratories), 3×10^6 cells/mouse.

[3] = system: NCI-H1650 tumor xenografts; assay: In vivo efficacy with gefitinib in the H1650 xenograft model; parameters: species or system mice; conditions: Example 32 25 or 50 mg/kg BID + gefitinib 6.25 mg/kg QD, oral, 21 days
Procedure: as §1
(§2) Twenty-three days after cell implantation, the mice were randomized into 6 groups (9 mice/group, average tumor volume 257 mm^3, range 205-303 mm^3). […] Drug levels in plasma were measured by LC/MS, using a Linear Ion Trap Quadrupole LC/MS/MS Mass Spectrometer (QTRAP 5500 model 1024945-BB, AB Sciex Instruments), with separation on a Waters Xbridge C18 column.

[4] = system: pSTAT3 (Y705); assay: pSTAT3 levels in NCI-H1650 tumor lysates (Western Blot); type: in vivo, mice; conditions: Example 32 as single agent and in combination with gefitinib, after one day of treatment
Procedure: as §2

[5] = system: NCI-H1975 tumor xenografts; assay: In vivo efficacy of intermittent Example 32 dosing schedules with osimertinib in the H1975 xenograft model; parameters: species or system mice; conditions: oral
Procedure: as §1
NCI-H1975 cells (a human NSCLC cell line with L858R and T790M mutations in the EGFR gene), were implanted subcutaneously in female NCr nude mice (Taconic Laboratories), 3×10^6 cells/mouse.

[6] = system: pSTAT3 (Y705); assay: pSTAT3 (Y705) levels in PC-9 tumor lysates (Western Blot); type: in vivo, mice; conditions: increasing dose of Example 32 (12.5, 50 mg/kg BID) with gefitinib; 2, 8 and 24 hours after the AM dose, last day
[7] = system: PC-9 tumor xenografts; assay: In vivo efficacy with gefitinib in the PC-9 xenograft model; parameters: species or system mice
Procedure: as §1

[8] = system: STAT3 phosphorylation in NCI-H1975 cells; assay: Cellular pSTAT3 assay in NCI-H1975 cells; type: cell-based; conditions: Homo sapiens, 2 hours with compound
Method in brief: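 NCI-H1975 cells (RPMI, 10% FBS) were treated with compound for 2 hours at 37° C., then lysed. Phospho-STAT3 in lysates was quantified by sandwich ELISA (STAT3 capture, phospho-STAT3 detection, HRP secondary, TMB), read at 450 nm.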

[9] = system: pSTAT3 (Y705); assay: pSTAT3 (Y705) levels in NCI-H1975 tumor lysates (sandwich ELISA); type: in vivo, mice; conditions: increasing dose of Example 32 (12.5 to 50 mg/kg BID), one day of treatment
Procedure: (§3) NCI-H1975 cells (a human NSCLC cell line with L858R and T790M mutations in the EGFR gene) tumor cells were implanted subcutaneously in female NCr nude mice (Taconic Laboratories), 3×10^6 cells/mouse. […] Drug levels in plasma were measured by LC/MS, using a Linear Ion Trap Quadrupole LC/MS/MS Mass Spectrometer (QTRAP 5500 model 1024945-BB, AB Sciex Instruments), with separation on a Waters Xbridge C18 column.

[10] = Drug levels in plasma by LC/MS, NCI-H1975 tumor bearing mice; type: in vivo; conditions: increasing dose of Example 32 (12.5 to 50 mg/kg BID), one day of treatment
Procedure: as §3

[11] = system: LG1049 non-small cell lung cancer PDX tumor xenografts; assay: In vivo efficacy with osimertinib in the LG1049 xenograft PDX model
Procedure: LG1049 non-small cell lung cancer PDX tumor xenografts were grown subcutaneously in female NSG mice. […] Tumor volume was measured twice a week.
(§4) LG1 049 tumor fragments were implanted subcutaneously in female NSG mice (JAX Stock No. 005557).

[12] = system: pEGFR; assay: pEGFR levels in LG1049 tumor lysates (Western Blot); type: in vivo, mice; conditions: osimertinib 25 mg/kg QD, 5 days of treatment, 4H after the final dose
Text: as §4

SMILES: COc1nn(C)cc1Nc1nccc(-c2c[nH]c3c(NC(=O)[C@@H](C)N4CCN(C)CC4)cccc23)n1 [Example 32, (2R)-N-(3-{2-[(3-methoxy-1-methyl-1H-pyrazol-4-yl)amino]pyrimidin-4-yl}-1H-indol-7-yl)-2-(4-methylpiperazin-1-yl)propanamide]
- pSTAT3 knockdown in tumors [1]: robust knockdown
- antitumor activity as a single agent ([2]; Example 32 12.5, 25, 50 mg/kg BID): only weak antitumor activity relative to vehicle control treatment
- antitumor activity in combination with osimertinib, compared to osimertinib alone ([2]; Example 32 12.5-50 mg/kg BID + osimertinib 2.5 mg/kg QD): enhanced the antitumor activity of osimertinib
- antitumor activity in combination with gefitinib, compared to single agent gefitinib [3]: enhanced the antitumor activity of gefitinib
- pSTAT3 knockdown in tumors [4]: Knockdown of pSTAT3 was observed
- antitumor activity as a single agent ([5]; Example 32 50 mg/kg BID, 19 days): no significant activity relative to vehicle control treatment
- antitumor activity in combination with osimertinib, compared to osimertinib alone ([5]; Example 32 12.5-50 mg/kg BID, continuous or intermittent schedules + osimertinib 2.5 mg/kg QD): enhanced the antitumor activity of osimertinib
- pSTAT3 knockdown in tumors [6]: dose dependent increase in the duration of pSTAT3 knockdown
- antitumor activity in combination with gefitinib, compared to gefitinib ([7]; Example 32 12.5 or 50 mg/kg BID + gefitinib 6.25 mg/kg QD, oral, 21 days): enhanced the antitumor activity of gefitinib
- antitumor activity in combination with gefitinib, compared to single agent gefitinib ([7]; gefitinib + 12.5 mg/kg Example 32 daily): greater activity than single agent gefitinib, but did not quite achieve statistical significance
- antitumor activity in combination with gefitinib, compared to single agent gefitinib ([7]; gefitinib + 50 mg/kg Example 32 dosed 2 days on/5 days off): greater activity than single agent gefitinib, but did not quite achieve statistical significance
- IC50 [8]: 161 nM
- pSTAT3 knockdown in tumors [9]: dose dependent increase in pSTAT3 knockdown
- level of Example 32 in plasma [10]: increasing level of Example 32 in plasma
- tumor regression in combination with osimertinib, compared to osimertinib alone ([11]; Example 32 25 mg/kg BID + osimertinib 25 mg/kg QD, oral, 28 days): enhanced the tumor regression induced by osimertinib
- antitumor activity as a single agent ([11]; Example 32 25 mg/kg BID, oral, 18 days): no significant activity relative to vehicle control treatment
- body weight, single agent treatment ([11]; mouse, in vivo): significant weight loss

SMILES: C=CC(=O)Nc1cc(Nc2nccc(-c3cn(C)c4ccccc34)n2)c(OC)cc1N(C)CCN(C)C [osimertinib, reference compound]
- pEGFR knockdown in tumors [12]: robust knockdown
- body weight, single agent treatment ([11]; LG1049 tumor bearing mice, weight loss stated to depend on tumor growth): lack of significant weight loss
